Measured values published in the supplement of paper PMC11061612.

How the values were obtained:
Assay in all cases: combination Emax (second highest fraction inhibited in the dose matrix, 72 h); higher = more inhibition; extreme values may be limits of the assay
[1] = test system: 769-P (Kidney Carcinoma)
How it was run: (§1)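 Bliss excess equals the observed combination effect minus the expected value EA + EB − EA·EB, where EA and EB are the effects of each agent alone. Combination Emax is the second-highest inhibition within the matrix. Inhibition was scaled from CellTiter-Glo 2.0 luminescence, with 0 set by vehicle wells and 1 by blank wells, after 72 hours of two-drug dosing of cells plated in 1536-well plates.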

[2] = test system: KYSE-140 (Esophageal Squamous Cell Carcinoma)
How it was run: as §1

[3] = test system: DU-4475 (Breast Carcinoma)
How it was run: as §1

[4] = test system: PEO1 (Ovarian Carcinoma)
How it was run: as §1

[5] = test system: EW-16 (Ewing's Sarcoma)
How it was run: as §1

[6] = test system: CAL-27 (Oral Cavity Carcinoma)
How it was run: as §1

[7] = test system: SK-HEP-1 (Hepatocellular Carcinoma)
How it was run: as §1

[8] = test system: RH-41 (Rhabdomyosarcoma)
How it was run: as §1

[9] = test system: WM1552C (Melanoma)
How it was run: as §1

[10] = test system: OACp4C (Esophageal Adenocarcinoma)
How it was run: as §1

[11] = test system: LU-165 (Small Cell Lung Carcinoma)
How it was run: as §1

[12] = test system: EB2 (Burkitt's Lymphoma)
How it was run: as §1

[13] = test system: 5637 (Bladder Carcinoma)
How it was run: as §1

[14] = test system: A2780 (Ovarian Carcinoma)
How it was run: as §1

[15] = test system: Jurkat (T-Lymphoblastic Leukemia)
How it was run: as §1

[16] = test system: G-402 (Other Solid Carcinomas)
How it was run: as §1

[17] = test system: HCC1428 (Breast Carcinoma)
How it was run: as §1

[18] = test system: MHH-ES-1 (Ewing's Sarcoma)
How it was run: as §1

[19] = test system: EPLC-272H (Other Solid Carcinomas)
How it was run: as §1

[20] = test system: A253 (Head and Neck Carcinoma)
How it was run: as §1

SMILES	combination Emax [1]	combination Emax [2]	combination Emax [3]	combination Emax [4]	combination Emax [5]	combination Emax [6]	combination Emax [7]	combination Emax [8]	combination Emax [9]	combination Emax [10]	combination Emax [11]	combination Emax [12]	combination Emax [13]	combination Emax [14]	combination Emax [15]	combination Emax [16]	combination Emax [17]	combination Emax [18]	combination Emax [19]	combination Emax [20]
COc1nnc2ccc(N3CCC(c4ccc(OCCN5CCN(C)C(=O)[C@H]5C)cc4)CC3)nn12 [AZD5153] + Cn1cnc2c(F)c(Nc3ccc(Br)cc3Cl)c(C(=O)NOCCO)cc21 [Selumetinib] (first compound max 1 µM, 7x7, partner max 10 µM)	0.659	0.557	1	0.483	0.506	0.795	0.234	0.92	0.514	0.945	0.357	0.502	0.81	0.823	0.594	0.797	0.728	0.707	0.868	0.456
COc1cccc(OCCCN)c1-c1cc(Nc2cnc(C#N)cn2)n[nH]1 [Prexasertib] + Cc1cc2ncnn2cc1Nc1ncc2c(n1)n(C1CCOCC1)c(=O)n2C [AZD7648] (first compound max 1 µM, 7x7, partner max 10 µM)	0.819	0.953	0.963	0.415	0.558	0.426	0.296	0.964	0.763	0.649	0.58	0.92	0.845	0.737	1	0.58	0.345	0.742	0.918	0.782
NC1(C(=O)N[C@@H](CCO)c2ccc(Cl)cc2)CCN(c2ncnc3[nH]ccc23)CC1 [Capivasertib] + CC(C)n1c(=O)n(C)c2cnc3cc(F)c(-c4ccc(OCCCN5CCCCC5)nc4)cc3c21 [AZD1390] (first compound max 10 µM, 7x7, partner max 0.3 µM)	0.34	0.732	0.331	0.32	0.296	0.321	0.318	0.921	0.305	0.818	0.464	0.61	0.336	0.643	0.697	0.398	0.186	0.354	0.632	0.559
COc1nnc2ccc(N3CCC(c4ccc(OCCN5CCN(C)C(=O)[C@H]5C)cc4)CC3)nn12 [AZD5153] + CC1(C)CCC(CN2CCN(c3ccc(C(=O)NS(=O)(=O)c4ccc(NCC5CCOCC5)c([N+](=O)[O-])c4)c(Oc4cnc5[nH]ccc5c4)c3)CC2)=C(c2ccc(Cl)cc2)C1 [Venetoclax] (first compound max 1 µM, 7x7, partner max 1 µM)	0.701	0.603	0.8	0.368	0.464	0.504	0.485	0.909	0.397	0.545	0.468	0.559	0.477	0.736	0.679	0.769	0.621	0.682	0.754	0.22
CC1(C)CCC(CN2CCN(c3ccc(C(=O)NS(=O)(=O)c4ccc(NCC5CCOCC5)c([N+](=O)[O-])c4)c(Oc4cnc5[nH]ccc5c4)c3)CC2)=C(c2ccc(Cl)cc2)C1 [Venetoclax] + COc1cc(Nc2ncc3c(n2)-c2ccc(Cl)cc2C(c2c(F)cccc2OC)=NC3)ccc1C(=O)O [Alisertib] (first compound max 1 µM, 7x7, partner max 10 µM)	0.303	0.423	0.807	0.276	0.726	0.689	0.349	0.765	0.508	0.72	0.241	0.803	0.778	0.709	0.741	0.57	0.339	0.795	0.514	0.444
Cc1c2c(nn1C)CSCc1cc(n(C)n1)CSc1cc(c3ccccc3c1)OCCCc1c(C(=O)O)n(C)c3c-2c(Cl)ccc13 [AZD5991] + CCN(CCO)CCCOc1ccc2c(Nc3cc(CC(=O)Nc4cccc(F)c4)[nH]n3)ncnc2c1 [AZD2811] (first compound max 1 µM, 7x7, partner max 1 µM)	0.328	0.602	0.378	0.321	0.808	0.974	0.387	1	0.824	0.827	0.307	0.342	0.91	0.802	0.919	0.946	0.974	0.883	0.945	0.896
CN(C)CCCOc1ccc(-c2ccc3ncc4c(c3c2)n(C2CCOCC2)c(=O)n4C)cn1 [AZD0156] + O=C(c1cc(Cc2n[nH]c(=O)c3ccccc23)ccc1F)N1CCN(C(=O)C2CC2)CC1 [Olaparib] (first compound max 3 µM, partner max 3 µM)	0.16	0.113	0.434	0.122	0.412	0.299	0.332	0.586	0.324	0.406	0.21	0.496	0.439	0.595	0.511	0.41	0.228	0.801	0.503	0.186
